In ChEMBL document CHEMBL3734751, “Discovery of novel, potent and low-toxicity angiotensin II receptor type 1 (AT1) blockers: Design, synthesis and biological evaluation of 6-substituted aminocarbonyl benzimidazoles with a chiral center” (Eur J Med Chem, 2015):
Where a chain is given by its changes, count along the chain named. Calls of active or inactive are those of the source. No cut-off for these calls is given here.

Columns and labels:
[1] = Toxicity in Kunming mouse at 3 g/kg, po assessed as mortality after 2 weeks; type: organism-based; details: in vivo, 3000 mg/kg
Mus musculus [2] = test: Hepatotoxicity in Kunming mouse assessed as serum AST level at 0.5 g/kg by automatic biochemical analyser (reference value: 133.44 +/- 25.05 U/T); type: toxicity, organism-based; details: in vivo, 500 mg/kg
[3] = target: T1, Type-1 angiotensin II receptor (Oryctolagus cuniculus, UniProt P34976); test: Antagonist activity against AT1 receptor in Japanese White rabbit aortic strips assessed as reduction in angiotension-2-induced contractile response after 60 mins by Schild's plot analysis; details: read-out: pA2 (converted)
T1 sequence (P34976 whole entry): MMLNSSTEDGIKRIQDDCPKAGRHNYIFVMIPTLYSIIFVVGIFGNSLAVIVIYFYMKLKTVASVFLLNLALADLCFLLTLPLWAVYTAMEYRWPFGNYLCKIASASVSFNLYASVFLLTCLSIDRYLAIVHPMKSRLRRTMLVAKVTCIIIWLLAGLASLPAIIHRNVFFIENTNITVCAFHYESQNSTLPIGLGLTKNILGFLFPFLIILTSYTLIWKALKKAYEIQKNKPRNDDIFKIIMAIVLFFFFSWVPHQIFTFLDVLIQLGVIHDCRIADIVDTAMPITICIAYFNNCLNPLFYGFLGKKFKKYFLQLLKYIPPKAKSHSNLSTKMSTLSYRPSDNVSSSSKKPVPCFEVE

[4] = Mutagenicity in Kunming mouse bone marrow cells assessed as micronucleated polychromatic erythrocytes level at 2 g/kg by May-Grunwald-Giemsan staining-based microscopic analysis (reference value: 3.2 +/- 1.62 ); type: toxicity, cell-based, Bone marrow cell; details: in vivo, 2000 mg/kg
Mus musculus [5] = test: Renal toxicity in Kunming mouse assessed as serum creatinin level at 2 g/kg by automatic biochemical analyser (reference value: 13.78 +/- 2.64 umol/L); type: organism-based; details: in vivo, 2000 mg/kg
[6] = AUC in Sprague-Dawley rat at 30 mg/kg, po by LC-MS/MS; type: ADME, organism-based; details: in vivo
[7] = Cmax in Sprague-Dawley rat at 30 mg/kg, po by LC-MS/MS; type: ADME, organism-based; parameters: dose 30 mg/kg, route oral; details: in vivo
[8] = Mutagenicity in Kunming mouse bone marrow cells assessed as micronucleated polychromatic erythrocytes level at 1 g/kg by May-Grunwald-Giemsa staining-based microscopic analysis (reference value: 3.2 +/- 1.62 ); type: toxicity, cell-based, Bone marrow cell; details: in vivo, 1000 mg/kg
Rattus norvegicus [9] = test: Antihypertensive activity in spontaneously hypertensive rat model assessed as decrease in systolic and diastolic blood pressure at 30 mg/kg, po administered daily for 14 days by tail-cuff plethysmography; type: functional, organism-based
Mus musculus [10] = test: Hepatotoxicity in Kunming mouse assessed as serum ALT level at 1 g/kg by automatic biochemical analyser (reference value: 44.33 +/- 6.50 U/T); type: toxicity, organism-based; details: in vivo, 1000 mg/kg
Rattus norvegicus [11] = test: Antihypertensive activity in spontaneously hypertensive rat model assessed as decrease in heart rate at 30 mg/kg, po administered daily for 14 days and measured after 2 days of drug withdrawal by tail-cuff plethysmography; type: functional, organism-based
Mus musculus [12] = test: Renal toxicity in Kunming mouse assessed as serum creatinin level at 1 g/kg by automatic biochemical analyser (reference value: 13.78 +/- 2.64 umol/L); type: organism-based; details: in vivo, 1000 mg/kg
[13] = Mutagenicity in Kunming mouse bone marrow cells assessed as micronucleated polychromatic erythrocytes level at 0.5 g/kg by May-Grunwald-Giemsa staining-based microscopic analysis (reference value: 3.2 +/- 1.62 ); type: toxicity, cell-based, Bone marrow cell; details: in vivo, 500 mg/kg
Mus musculus [14] = test: Renal toxicity in Kunming mouse assessed as serum urea level at 0.5 g/kg by automatic biochemical analyser (reference value: 9.95 +/- 1.39 mmol); type: organism-based; details: in vivo, 500 mg/kg
Rattus norvegicus [15] = test: Antihypertensive activity in spontaneously hypertensive rat model assessed as decrease in systolic and diastolic blood pressure at 30 mg/kg, po administered daily for 14 days and measured after 2 days of drug withdrawal by tail-cuff plethysmography; type: functional, organism-based
[16] = Volume of distribution at steady state in Sprague-Dawley rat at 3 mg/kg, iv by LC-MS/MS; type: ADME, organism-based; details: in vivo, read-out: Vdss
Rattus norvegicus [17] = test: Antihypertensive activity in po dosed spontaneously hypertensive rat assessed as decrease in mean blood pressure by tail-cuff plethysmography; type: functional, organism-based
Mus musculus [18] = test: Hepatotoxicity in Kunming mouse assessed as serum AST level at 1 g/kg by automatic biochemical analyser (reference value: 133.44 +/- 25.05 U/T); type: toxicity, organism-based; details: in vivo, 1000 mg/kg
[19] = Mutagenicity in Kunming mouse bone marrow cells assessed as ratio of polychromatic erythrocyte level to norchromatic erythrocyte level at 1 g/kg by May-Grunwald-Giemsa staining-based microscopic analysis (reference value: 1.32 +/- 0.22 ); type: toxicity, cell-based, Bone marrow cell; details: in vivo, 1000 mg/kg
[20] = Terminal half-life in Sprague-Dawley rat at 3 mg/kg, iv by LC-MS/MS; type: ADME, organism-based; details: in vivo, read-out: beta t1/2 (converted)
[21] = Tmax in Sprague-Dawley rat at 30 mg/kg, po by LC-MS/MS; type: ADME, organism-based; details: in vivo
[22] = target: T2, Type-1 angiotensin II receptor (Homo sapiens, UniProt P30556); test: Displacement of [125I]Sar1Ile8-Ang2 from human AT1 receptor expressed in CHO-K1 cell membranes after 180 mins
T2 sequence (P30556 whole entry): T1 sequence (P34976 whole entry) with M2I, A49V, V254I, V270I, H272R, K311R, S349T, V353A

Rattus norvegicus [23] = test: AUC in Sprague-Dawley rat at 3 mg/kg, iv by LC-MS/MS; type: ADME, organism-based; details: in vivo
[24] = Terminal half-life in Sprague-Dawley rat at 30 mg/kg, po by LC-MS/MS; type: ADME, organism-based; details: in vivo, read-out: beta t1/2 (converted)
Mus musculus [25] = test: Renal toxicity in Kunming mouse assessed as serum urea level at 1 g/kg by automatic biochemical analyser (reference value: 9.95 +/- 1.39 mmol); type: organism-based; details: in vivo, 1000 mg/kg
Mus musculus [26] = test: Hepatotoxicity in Kunming mouse assessed as serum ALT level at 0.5 g/kg by automatic biochemical analyser (reference value: 44.33 +/- 6.50 U/T); type: toxicity, organism-based; details: in vivo, 500 mg/kg
Mus musculus [27] = test: Renal toxicity in Kunming mouse assessed as serum urea level at 2 g/kg by automatic biochemical analyser (reference value: 9.95 +/- 1.39 mmol); type: organism-based; details: in vivo, 2000 mg/kg
[28] = Toxicity in Kunming mouse at 2 g/kg, po assessed as mortality after 2 weeks; type: organism-based; details: in vivo, 2000 mg/kg
[29] = Mutagenicity in Kunming mouse bone marrow cells assessed as ratio of polychromatic erythrocyte level to norchromatic erythrocyte level at 0.5 g/kg by May-Grunwald-Giemsa staining-based microscopic analysis (reference value: 1.32 +/- 0.22 ); type: toxicity, cell-based, Bone marrow cell; details: in vivo, 500 mg/kg
[30] = Toxicity in Kunming mouse at 5 g/kg, po assessed as mortality after 2 weeks; type: organism-based; details: in vivo, 5000 mg/kg
Mus musculus [31] = test: Hepatotoxicity in Kunming mouse assessed as serum ALT level at 2 g/kg by automatic biochemical analyser (reference value: 44.33 +/- 6.50 U/T); type: toxicity, organism-based; details: in vivo, 2000 mg/kg
Mus musculus [32] = test: Renal toxicity in Kunming mouse assessed as serum creatinin level at 0.5 g/kg by automatic biochemical analyser (reference value: 13.78 +/- 2.64 umol/L); type: organism-based; details: in vivo, 500 mg/kg
[33] = Mutagenicity in Kunming mouse bone marrow cells assessed as ratio of polychromatic erythrocyte level to norchromatic erythrocyte level at 2 g/kg by May-Grunwald-Giemsa staining-based microscopic analysis (reference value: 1.32 +/- 0.22 ); type: toxicity, cell-based, Bone marrow cell; details: in vivo, 2000 mg/kg
Mus musculus [34] = test: Hepatotoxicity in Kunming mouse assessed as serum AST level at 2 g/kg by automatic biochemical analyser (reference value: 133.44 +/- […] U/T); type: toxicity, organism-based; details: in vivo, 2000 mg/kg
Rattus norvegicus [35] = test: Antihypertensive activity in spontaneously hypertensive rat model assessed as decrease in heart rate at 30 mg/kg, po administered daily for 14 days by tail-cuff plethysmography; type: functional, organism-based
[36] = Toxicity in Kunming mouse at 4 g/kg, po assessed as mortality after 2 weeks; type: organism-based; details: in vivo, 4000 mg/kg
[37] = Oral bioavailability in Sprague-Dawley rat at 30 mg/kg, by LC-MS/MS; type: ADME, organism-based; details: in vivo
[38] = Toxicity in orally dosed Kunming mouse assessed as mortality after 2 weeks; type: organism-based; details: in vivo, po

## CCCc1nc2c(C)cc(C(=O)NC[C@H](C)c3ccccc3)cc2n1Cc1ccc(-c2ccccc2-c2nnn[nH]2)cc1
[1]
  mortality at 336 h: 30%
Mus musculus [2]
  Activity: 126 U/L
[3]
  Kb: 1.78 nM
[4]
  Activity: 4.3
Mus musculus [5]
  Activity: 6.14 µmol/L
[6]
  AUC: 51500 ng·h/mL
[7]
  Cmax: 14600 ng/mL
[8]
  Activity: 3.8
Rattus norvegicus [9]
  Activity: Active
Mus musculus [10]
  Activity: 52.6 U/L
Rattus norvegicus [11]
  Activity: Active
Mus musculus [12]
  Activity: 8.3 µmol/L
[13]
  Activity: 3
Mus musculus [14]
  Activity: 8.71 mM
Rattus norvegicus [15]
  Activity: Active
[16]
  Vd: 11 L/kg
Rattus norvegicus [17]
  Activity: Dose-dependent effect
Mus musculus [18]
  Activity: 141 U/L
[19]
  Ratio: 1.28
[20]
  half-life: 12.6 h
[21]
  Tmax: 0.75 h
[22]
  IC50: 1.1 nM
Rattus norvegicus [23]
  AUC: 12200 ng·h/mL
[24]
  half-life: 13 h
Mus musculus [25]
  Activity: 10 mM
Mus musculus [26]
  Activity: 42.7 U/L
Mus musculus [27]
  Activity: 11.2 mM
[28]
  mortality at 336 h: 0%
[29]
  Ratio: 1.34
[30]
  mortality at 336 h: 90%
Mus musculus [31]
  Activity: 91.4 U/L
Mus musculus [32]
  Activity: 10.3 µmol/L
[33]
  Ratio: 1.64
Mus musculus [34]
  Activity: 217 U/L
Rattus norvegicus [35]
  Activity: Active
[36]
  mortality at 336 h: 50%
[37]
  bioavailability: 42%
[38]
  LD50 at 336 h: 3640 mg/kg
